According to patent publication US20230271947A1, “SALT AND CRYSTAL FORM OF KETOHEXOKINASE INHIBITOR AND USE THEREOF” (SHANDONG XUANZHU PHARMA CO., LTD., priority 2020, published 2023):

Tests used:
KHK-C = target: T1, KHK-C (Homo sapiens, UniProt P50053); assay: In vitro KHK kinase inhibitory activity test (ADP-Glo); format: biochemical; conditions: 1 nM KHK-C, 100 µM ATP, 200 µM D-Fructose
T1 construct: purchased Origene TP323488
T1 sequence (P50053 1-298): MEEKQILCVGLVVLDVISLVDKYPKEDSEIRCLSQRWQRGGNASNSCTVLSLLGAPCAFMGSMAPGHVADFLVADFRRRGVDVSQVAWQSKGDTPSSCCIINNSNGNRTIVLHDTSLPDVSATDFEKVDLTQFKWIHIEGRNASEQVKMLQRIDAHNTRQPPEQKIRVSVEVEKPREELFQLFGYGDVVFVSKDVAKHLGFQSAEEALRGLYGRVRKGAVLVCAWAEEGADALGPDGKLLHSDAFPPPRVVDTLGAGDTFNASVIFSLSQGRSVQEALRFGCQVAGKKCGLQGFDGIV
Description: 1) DMSO was used to prepare the compound of the present invention and a control drug to 10 mM, which was used as a testing stock solution.
2) The compound stock solution of the present invention was diluted 10-fold to 1 mM, and then the compound of the present invention was diluted in gradient 3-fold to 11 concentrations, with the highest concentration of 1 mM. The control drug stock solution was diluted 100-fold to 0.1 mM, and then the control drug was diluted in gradient 3-fold to 11 concentrations, with the highest concentration of 0.1 mM.
3) 0.1 µL of the diluted compound of the present invention and 0.1 µL of the diluted control drug were transferred by using Echo550 to a 384-well plate respectively, with two repeated wells set for each concentration, and centrifuged at 1,000 rpm for 1 min.
1) 5 µL of KHK-C kinase working fluid was added to a 384-well plate, centrifuged at 1,000 rpm for 1 min, and then incubated at a room temperature of 25° C. for 15 min. […]
3) After the reaction was completed, fluorescence value LUM was read on Envision.
Inhibition (% inh) was calculated by using the following equation: […]
IC50 was calculated by curve fitting with software.

[1] = Stability investigation of crystal forms A, B, C, D and the amorphous form of the compound of formula (1) (related substances by HPLC, moisture, XRD, DSC); format: physicochemical
Description: 2.1 Investigation conditions for the crystal form A of the compound of formula (1): • placed at 105° C. for 5 days, opened, and sampled for testing on day 5; • placed at 60° C. for 10 days, opened/closed, and sampled for testing on day 10; • placed at 25° C. and RH 92.5% for 10 days, opened/closed, and sampled for testing on day 10; • placed at 40° C. and RH 75% for one month, opened/closed, and sampled for testing on the last day of the month; and • under illumination, employing a closed way (polyethylene bag + composite film bag) to meet illumination requirements, and sampled for testing.
Illumination requirements: ICH Q1B Stability Testing: Photostability Testing of New Drug Substances and Products.
Determination of related substances: determined according to 0512 HPLC in General Principle (Volume IV) of Chinese Pharmacopoeia (2015 Version).
Moisture determination: determined according to 2 Coulometric Titration in the First Method (Karl Fischer titration) of 0832 Moisture Determination Method in General Principle (Volume IV) of Chinese Pharmacopoeia (2015 Version).
XRD determination: determined according to the Second Method-Powder X-ray Diffraction Method of 0451 X-ray Diffraction Method in General Principle (Volume IV) of Chinese Pharmacopoeia (2015 Version).
DSC determination: precisely weighing an appropriate amount of sample in a Standard disc, covering the Standard disc, placing the Standard disc in a sample disc position in a DSC furnace, placing a blank disc of the same type in a reference position, and carrying out the following temperature rise program:
1. Equilibrate at 25° C.; and
2.1 Investigation conditions for the crystal form B of the compound of formula (1): • placed at 105° C. for 5 days, opened, and sampled for testing on day 5; • placed at 60° C. for 10 days, opened/closed, and sampled for testing on day 10; • placed at 25° C. and RH 92.5% for 10 days, opened/closed, and sampled for testing on day 10; • placed at 40° C. and RH 75% for one month, opened/closed, and sampled for testing on the last day of the month; and • under illumination, employing a closed way (polyethylene bag + composite film bag) to meet illumination requirements, and sampled for testing.
2.1 Investigation conditions for the crystal form C of the compound of formula (1): • placed at 105° C. for 5 days, opened, and sampled for testing on day 5; • placed at 60° C. for 10 days, opened/closed, and sampled for testing on day 10; • placed at 25° C. and RH 92.5% for 10 days, opened/closed, and sampled for testing on day 10; • placed at 40° C. and RH 75% for one month, opened/closed, and sampled for testing on the last day of the month; and • under illumination, employing a closed way (polyethylene bag + composite film bag) to meet illumination requirements, and sampled for testing.
1. Equilibrate at 25° C.; and 2. Ramp 10° C. to 200° C.
2.1 Investigation conditions for the crystal form D of the compound of formula (1): • placed at 105° C. for 5 days, opened, and sampled for testing on day 5; • placed at 60° C. for 10 days, opened/closed, and sampled for testing on day 10; • placed at 25° C. and RH 92.5% for 10 days, opened/closed, and sampled for testing on day 10; • placed at 40° C. and RH 75% for one month, opened/closed, and sampled for testing on the last day of the month; and • under illumination, employing a closed way (polyethylene bag + composite film bag) to meet illumination requirements, and sampled for testing.
2.1 Investigation conditions for the amorphous form of the compound of formula (1): • placed at 60° C. for 10 days, opened/closed, and sampled for testing on day 10; • placed at 25° C. and RH 92.5% for 10 days, opened/closed, and sampled for testing on day 10; • placed at 40° C. and RH 75% for one month, opened/closed, and sampled for testing on the last day of the month; and • under illumination, employing a closed way (polyethylene bag + composite film bag) to meet illumination requirements, and sampled for testing.

[2] = 25° C., RH 92.5%, closed, 10 days
[3] = 25° C., RH 92.5%, opened, 10 days

`C[C@H]1CCN1c1nc(N2C[C@@H]3[C@@H](CC(=O)O)[C@@H]3C2)c2c(n1)C(F)(F)CC2` [Compound of formula (1), 2-((1R,5S,6R)-3-(7,7-difluoro-2-((S)-2-methylazetidin-1-yl)-6,7-dihydro-5H-cyclopenta[d]pyrimidin-4-yl)-3-azabicyclo[3.1.0]hexan-6-yl)acetic acid] gave an IC50 (KHK-C) of 0.82 nM.

Compound `C[C@H]1CCN1c1nc(N2C[C@@H]3[C@@H](CC(=O)O)[C@@H]3C2)c2c(n1)C(F)(F)CC2` [Crystal form C, 2-((1R,5S,6R)-3-(7,7-difluoro-2-((S)-2-methylazetidin-1-yl)-6,7-dihydro-5H-cyclopenta[d]pyrimidin-4-yl)-3-azabicyclo[3.1.0]hexan-6-yl)acetic acid] has a DSC ([1]; 0 day) of 172.44 °C, a Moisture % ([1]; 0 day) of 0.24% and a Total related % ([1]; 0 day) of 1.25%. The Trait ([1]; 0 day) was “Off-white power”, the DSC [1, 2] was 172.36 °C and the Moisture % [1, 2] was 0.09%. The Total related % [1, 2] was 1.06%, the Trait [1, 2] was “Off-white power” and the XRD [1, 2] was “Same as day 0”. For the same compound, the DSC [1, 3] was 172.35 °C, the Moisture % [1, 3] was 0.11% and the Total related % [1, 3] was 1.07%. For the same compound, the Trait [1, 3] was “Off-white power”, the XRD [1, 3] was “Same as day 0” and the DSC ([1]; 40° C., RH 75%, closed, 1 M) was 172.36 °C. For the same compound, the Moisture % ([1]; 40° C., RH 75%, closed, 1 M) was 0.19%, the Total related % ([1]; 40° C., RH 75%, closed, 1 M) was 1.30% and the Trait ([1]; 40° C., RH 75%, closed, 1 M) was “Off-white power”. The XRD ([1]; 40° C., RH 75%, closed, 1 M) was “Same as day 0”, the DSC ([1]; 40° C., RH 75%, opened, 1 M) was 172.35 °C and the Moisture % ([1]; 40° C., RH 75%, opened, 1 M) was 0.13%. For the same compound, the Total related % ([1]; 40° C., RH 75%, opened, 1 M) was 1.31%, the Trait ([1]; 40° C., RH 75%, opened, 1 M) was “Off-white power” and the XRD ([1]; 40° C., RH 75%, opened, 1 M) was “Same as day 0”. The DSC ([1]; 60° C., closed, 10 days) was 172.21 °C, the Moisture % ([1]; 60° C., closed, 10 days) was 0.08% and the Total related % ([1]; 60° C., closed, 10 days) was 2.20%. For the same compound, the Trait ([1]; 60° C., closed, 10 days) was “Off-white power”, the XRD ([1]; 60° C., closed, 10 days) was “Same as day 0” and the DSC ([1]; 60° C., opened, 10 days) was 172.21 °C. For the same compound, the Moisture % ([1]; 60° C., opened, 10 days) was 0.08%, the Total related % ([1]; 60° C., opened, 10 days) was 2.09% and the Trait ([1]; 60° C., opened, 10 days) was “Off-white power”. For the same compound, the XRD ([1]; 60° C., opened, 10 days) was “Same as day 0”, the “Total related substances, change” value ([1]; 105° C. for 5 days and 60° C. for 10 days) was “slightly increased” and the DSC ([1]; 105° C., opened, 5 days) was 171.85 °C. The Moisture % ([1]; 105° C., opened, 5 days) was 0.24%, the Total related % ([1]; 105° C., opened, 5 days) was 1.77% and the Trait ([1]; 105° C., opened, 5 days) was “Off-white power”. The XRD ([1]; 105° C., opened, 5 days) was “Same as day 0”, the DSC ([1]; Avoid light for 18 days) was 172.42 °C and the Moisture % ([1]; Avoid light for 18 days) was 0.13%. For the same compound, the Total related % ([1]; Avoid light for 18 days) was 1.25%, the Trait ([1]; Avoid light for 18 days) was “Off-white power” and the XRD ([1]; Avoid light for 18 days) was “Same as day 0”. The “Related substances, content, moisture, and XRD stability” value ([1]; opened/closed, 25° C. and RH 92.5% for 10 days, 40° C. and RH 75% for one month) was “good”.

`C[C@H]1CCN1c1nc(N2C[C@@H]3[C@@H](CC(=O)O)[C@@H]3C2)c2c(n1)C(F)(F)CC2` [Crystal form A, 2-((1R,5S,6R)-3-(7,7-difluoro-2-((S)-2-methylazetidin-1-yl)-6,7-dihydro-5H-cyclopenta[d]pyrimidin-4-yl)-3-azabicyclo[3.1.0]hexan-6-yl)acetic acid] gave a DSC ([1]; 0 day) of 170.33 °C, a Moisture % ([1]; 0 day) of 0.53% and a Total related % ([1]; 0 day) of 0.18%. For the same compound, the Trait ([1]; 0 day) was “Off-white power”, the DSC [1, 2] was 170.42 °C and the Moisture % [1, 2] was 0.54%. The Total related % [1, 2] was 0.24%, the Trait [1, 2] was “Off-white power” and the XRD [1, 2] was “Same as day 0”. It also gave a DSC [1, 3] of 170.23 °C, a Moisture % [1, 3] of 0.54% and a Total related % [1, 3] of 0.24%. For the same compound, the Trait [1, 3] was “Off-white power”, the XRD [1, 3] was “Same as day 0” and the DSC ([1]; 40° C., RH 75%, closed, 1 M) was 170.38 °C. The Moisture % ([1]; 40° C., RH 75%, closed, 1 M) was 0.57%, the Total related % ([1]; 40° C., RH 75%, closed, 1 M) was 0.22% and the Trait ([1]; 40° C., RH 75%, closed, 1 M) was “Off-white power”. For the same compound, the XRD ([1]; 40° C., RH 75%, closed, 1 M) was “Same as day 0”, the DSC ([1]; 40° C., RH 75%, opened, 1 M) was 170.32 °C and the Moisture % ([1]; 40° C., RH 75%, opened, 1 M) was 0.46%. The Total related % ([1]; 40° C., RH 75%, opened, 1 M) was 0.24%, the Trait ([1]; 40° C., RH 75%, opened, 1 M) was “Off-white power” and the XRD ([1]; 40° C., RH 75%, opened, 1 M) was “Same as day 0”. The DSC ([1]; 60° C., closed, 10 days) was 170.34 °C, the Moisture % ([1]; 60° C., closed, 10 days) was 0.61% and the Total related % ([1]; 60° C., closed, 10 days) was 0.24%. The Trait ([1]; 60° C., closed, 10 days) was “Off-white power”, the XRD ([1]; 60° C., closed, 10 days) was “Same as day 0” and the DSC ([1]; 60° C., opened, 10 days) was 170.26 °C. The Moisture % ([1]; 60° C., opened, 10 days) was 0.54%, the Total related % ([1]; 60° C., opened, 10 days) was 0.25% and the Trait ([1]; 60° C., opened, 10 days) was “Off-white power”. For the same compound, the XRD ([1]; 60° C., opened, 10 days) was “Same as day 0”, the DSC ([1]; 105° C., opened, 5 days) was 170.65 °C and the Moisture % ([1]; 105° C., opened, 5 days) was 0.54%. The Total related % ([1]; 105° C., opened, 5 days) was 0.30%, the Trait ([1]; 105° C., opened, 5 days) was “Off-white power” and the XRD ([1]; 105° C., opened, 5 days) was “Same as day 0”. For the same compound, the DSC ([1]; Avoid light for 18 days) was 170.20 °C, the Moisture % ([1]; Avoid light for 18 days) was 0.47% and the Total related % ([1]; Avoid light for 18 days) was 0.19%. The Trait ([1]; Avoid light for 18 days) was “Off-white power”, the XRD ([1]; Avoid light for 18 days) was “Same as day 0” and the “Stability, testing conclusion” value ([1]; under the above conditions (all placement conditions of the study)) was “relatively stable”.
